Active and inactive are the calls of the source. The rule behind the calls is not given here.
How the values were obtained:
[1] = system: Plasmodium berghei; test: Antimalarial activity against Plasmodium berghei GFP ANKA infected in NMRI mice (Mus musculus) assessed as reduction in parasitaemia at 10 mg/kg, perorally administered as single dose 24 hrs post infection for 1 day measured 72 hrs post infection; format: functional; design: scale not given: the % may be the effect or the level left; details: route oral
[2] = system: Plasmodium falciparum; test: Antimalarial activity against NITD609-resistant Plasmodium falciparum Dd2 Clone2 bearing P-type ATPase4 T418N and P990R mutations after 72 hrs by SYBR green based fluorescence assay; format: functional, organism-based; details: Dd2, 72 h
[3] = system: Plasmodium falciparum; format: functional, organism-based; details: Dd2, 72 h
[4] = system: Plasmodium berghei; test: Antimalarial activity against Plasmodium berghei GFP ANKA infected in NMRI mice (Mus musculus) assessed as reduction in parasitaemia at 100 mg/kg, perorally administered as single dose 24 hrs post infection for 1 day measured 72 hrs post infection; format: functional; design: scale not given: the % may be the effect or the level left; details: route oral
[5] = system: Plasmodium berghei; test: Antimalarial activity against Plasmodium berghei GFP ANKA infected in NMRI mice (Mus musculus) assessed as reduction in parasitaemia at 30 mg/kg, perorally administered through 7% Tween80/3% Ethanol formulation 24 hrs post infection for 3 days measured 96 hrs post infection; format: functional; design: scale not given: the % may be the effect or the level left; details: route oral
[6] = system: Plasmodium berghei; test: Antimalarial activity against Plasmodium berghei GFP ANKA infected in NMRI mice (Mus musculus) assessed as survival at 10 mg/kg, perorally administered through 7% Tween80/3% Ethanol formulation 24 hrs post infection for 3 days measured 96 hrs post infection; format: functional; details: route oral
[7] = system: Plasmodium falciparum; test: Antimalarial activity against NITD609-resistant Plasmodium falciparum Dd2 Clone1 bearing P-type ATPase4 I398F and P990R mutations after 72 hrs by SYBR green based fluorescence assay; format: functional, organism-based; details: Dd2, 72 h
[8] = system: Plasmodium berghei; test: Antimalarial activity against Plasmodium berghei GFP ANKA infected in NMRI mice (Mus musculus) assessed as reduction in parasitaemia at 10 mg/kg, perorally administered through 7% Tween80/3% Ethanol formulation 24 hrs post infection for 3 days measured 96 hrs post infection; format: functional; design: scale not given: the % may be the effect or the level left; details: route oral
[9] = system: Plasmodium berghei; test: Antimalarial activity against Plasmodium berghei GFP ANKA infected in NMRI mice (Mus musculus) assessed as reduction in parasitaemia at 30 mg/kg, perorally administered as single dose 24 hrs post infection for 1 day measured 72 hrs post infection; format: functional; design: scale not given: the % may be the effect or the level left; details: route oral
[10] = system: Plasmodium berghei; test: Antimalarial activity against Plasmodium berghei GFP ANKA infected in NMRI mice (Mus musculus) assessed as survival at 30 mg/kg, perorally administered as single dose 24 hrs post infection for 1 day measured 72 hrs post infection; format: functional; details: route oral
[11] = system: Plasmodium berghei; test: Antimalarial activity against Plasmodium berghei GFP ANKA infected in NMRI mice (Mus musculus) assessed as survival at 10 mg/kg, perorally administered as single dose as single dose 24 hrs post infection for 1 day measured 72 hrs post infection; format: functional; details: route oral
[12] = system: Plasmodium berghei; test: Antimalarial activity against Plasmodium berghei GFP ANKA infected in NMRI mice (Mus musculus) assessed as reduction in parasitaemia dosed in ETPGS formulation 1 day post infection measured 72 hrs post infection; format: functional
[13] = system: Plasmodium berghei; test: Antimalarial activity against Plasmodium berghei GFP ANKA infected in NMRI mice (Mus musculus) assessed as reduction in parasitaemia dosed in 7% Tween80/3% ethanol formulation 1 day post infection measured 72 hrs post infection; format: functional
[14] = system: Plasmodium falciparum; test: Antimalarial activity against Plasmodium falciparum assessed as […] by SYBR green based fluorescence assay; format: functional, organism-based; details: for IC50: Plasmodium falciparum
[15] = system: Plasmodium falciparum; test: microbe, parasite or virus in culture; details: Dd2, 72 h
Description: Antimalarial activity against Plasmodium falciparum Dd2 containing attB site inserted in parasite genome and using CAM promoter driven expressing ATP4 I398F/P990R mutant after 72 hrs by SYBR green based fluorescence assay

[16] = system: Plasmodium berghei; test: Antimalarial activity against Plasmodium berghei GFP ANKA infected in NMRI mice (Mus musculus) assessed as survival at 100 mg/kg, perorally administered as single dose 24 hrs post infection for 1 day measured 72 hrs post infection; format: functional; details: route oral
[17] = system: Plasmodium falciparum; test: microbe, parasite or virus in culture; details: Dd2, 72 h; remark: listed apart in the source
Description: Antimalarial activity against Plasmodium falciparum Dd2 containing attB site inserted in parasite genome and using EF1-alpha promoter driven expressing ATP4 D1247Y mutant after 72 hrs by SYBR green based fluorescence assay

[18] = system: Plasmodium berghei; test: Antimalarial activity against Plasmodium berghei GFP ANKA infected in NMRI mice (Mus musculus) assessed as survival at 30 mg/kg, perorally administered through 7% Tween80/3% Ethanol formulation 24 hrs post infection for 3 days measured 96 hrs post infection; format: functional; details: route oral
[19] = system: Plasmodium falciparum; test: microbe, parasite or virus in culture; details: Dd2, 72 h; remark: listed apart in the source
Description: Antimalarial activity against Plasmodium falciparum Dd2 containing attB site inserted in parasite genome and using EF1-alpha promoter driven expressing ATP4 I398F/P990R mutant after 72 hrs by SYBR green based fluorescence assay

[20] = system: Plasmodium falciparum; test: microbe, parasite or virus in culture; details: Dd2, 72 h; remark: listed apart in the source
Description: Antimalarial activity against Plasmodium falciparum Dd2 containing attB site inserted in parasite genome and using CAM promoter driven expressing ATP4 D1247Y mutant after 72 hrs by SYBR green based fluorescence assay

[21] = system: Plasmodium falciparum; test: Antimalarial activity against Plasmodium falciparum Dd2 after 72 hrs by SYBR green based fluorescence assay; format: functional, organism-based; details: Dd2, 72 h
[22] = system: Plasmodium falciparum; test: Inhibition of protein synthesis in NITD609-resistant Plasmodium falciparum Dd2 Clone3 within 1 hrs by [35S]Met/Cys incorporation assay; format: functional
[23] = system: Plasmodium falciparum; test: Inhibition of protein synthesis in NITD609-resistant Plasmodium falciparum Dd2 Clone1 within 1 hrs by [35S]Met/Cys incorporation assay; format: functional
[24] = system: Plasmodium falciparum; test: Antimalarial activity against Plasmodium falciparum 3D7 assessed as parasite growth inhibition at 8 nM after 6 hrs by [3H]hypoxanthin incorporation assay; format: functional
[25] = system: Plasmodium falciparum; test: microbe, parasite or virus in culture; details: Dd2, 72 h; remark: listed apart in the source
Description: Antimalarial activity against Plasmodium falciparum Dd2 containing attB site inserted in parasite genome and expressing parental ATP4 after 72 hrs by SYBR green based fluorescence assay

[26] = system: Plasmodium falciparum; test: microbe, parasite or virus in culture; details: Dd2, 72 h; remark: listed apart in the source
Description: Antimalarial activity against Plasmodium falciparum Dd2 containing attB site inserted in parasite genome and using EF1-alpha promoter driven expressing wild type ATP4 after 72 hrs by SYBR green based fluorescence assay

OC(c1cc(C(F)(F)F)nc2c(C(F)(F)F)cccc12)C1CCCCN1 (configuration not stated) [MEFLOQUINE]
Activity [1]: 95% | IC50 [2]: 7 nM | IC50 ([3]; read-out: IC50): 8 nM | Activity [4]: 89% | Activity [5]: 99.9% | Survival [6]: 13.8 days | IC50 [7]: 6.7 nM | Activity [8]: 99.9% | Activity [9]: 98% | Survival [10]: 18.2 days | mean survival time at 10 mg/kg [11]: 15.2 days | ED50 [12]: 4.2 mg/kg | ED99 [13]: 8.6 mg/kg | inhibition (INH) [14]: <25% | IC50 [15]: 12.9 nM | Survival [16]: 28 days | IC50 [17]: 12.5 nM | Survival [18]: 14 days | IC50 [19]: 14.1 nM | IC50 [20]: 11 nM

C/C=C/[C@H]1O[C@@](O)([C@@H](C)[C@H](O)[C@H](C)[C@H]2OC(=O)/C(OC)=C/C(C)=C/[C@@H](C)[C@@H](O)[C@@H](CC)[C@@H](O)[C@H](C)C/C(C)=C/C=C/[C@@H]2OC)C[C@@H](O[C@H]2C[C@@H](O)[C@H](OC(N)=O)[C@@H](C)O2)[C@@H]1C [CONCANAMYCIN A]
IC50 [2]: 8 nM | IC50 ([3]; read-out: IC50): 7 nM | IC50 [7]: 7 nM | IC50 [21]: 4.5 nM

CCc1nc(N)nc(N)c1-c1ccc(Cl)cc1 [PYRIMETHAMINE]
IC50 [2]: > 20000 nM | IC50 ([3]; read-out: IC50): > 20000 nM | IC50 [7]: > 20000 nM | IC50 [21]: > 20000 nM

C[C@@H]1C[C@@H]([C@H](O)CC2CC(=O)NC(=O)C2)C(=O)[C@@H](C)C1 [CYCLOHEXIMIDE]
IC50 [2]: 310 nM | IC50 [3]: 301 nM | IC50 [7]: 287 nM | IC50 [21]: 320 nM | inhibition [22]: Active | IC50 [14]: 200 nM | inhibition [23]: Active

CO[C@H]1O[C@@H]2O[C@@]3(C)CC[C@H]4[C@H](C)CC[C@@H]([C@H]1C)[C@@]24OO3
Activity [1]: 81% | Survival [6]: 13.2 days | Activity [8]: 99.7% | Activity [9]: 97% | Survival [10]: 6.9 days | mean survival time at 10 mg/kg [11]: 6.2 days | inhibition at 0.008 µM [24]: > 90% | Survival [16]: >7.6 days

O=C1C(O)=C([C@H]2CC[C@H](c3ccc(Cl)cc3)CC2)C(=O)c2ccccc21 [ATOVAQUONE]
IC50 [2]: 0.8 nM | IC50 ([3]; read-out: IC50): 0.6 nM | IC50 [7]: 0.6 nM | IC50 [21]: 0.8 nM

C/C=C(/C)C(=O)O[C@H]1C(C)=C2[C@H]([C@@H]1OC(=O)CCCCCCC)[C@@](C)(OC(C)=O)C[C@H](OC(=O)CCC)[C@@]1(O)[C@H]2OC(=O)[C@@]1(C)O [THAPSIGARGIN]
IC50 [2]: 1110 nM | IC50 ([3]; read-out: IC50): 1050 nM | IC50 [7]: 813 nM | IC50 [21]: 905 nM

C[C@@H]1CC[C@H]2[C@@H](C)C(=O)O[C@@H]3O[C@@]4(C)CC[C@@H]1[C@]32OO4 [ARTEMISININ]
IC50 [2]: 18 nM | IC50 ([3]; read-out: IC50): 16 nM | IC50 [7]: 13 nM | IC50 [25]: 15.4 nM | inhibition (INH) [14]: <25% | IC50 [14]: 15 nM | IC50 [15]: 18 nM | IC50 [17]: 19.8 nM | IC50 [19]: 17.3 nM | IC50 [20]: 16.2 nM | IC50 [26]: 17.2 nM

CCN(CC)CCCC(C)Nc1ccnc2cc(Cl)ccc12 (configuration not stated) [CHLOROQUINE]
Activity [4]: >99.9% | Activity [5]: 98.6% | Survival [6]: 15.4 days | Survival [10]: 8.7 days | mean survival time at 10 mg/kg [11]: 8 days | ED50 [12]: 1.9 mg/kg | ED99 [13]: 8.4 mg/kg | Survival [16]: 12 days | Survival [18]: 18.8 days

COc1ccc(C[C@H]2NC[C@H](O)[C@H]2OC(C)=O)cc1 [ANISOMYCIN]
IC50 [2]: 9.2 nM | IC50 ([3]; read-out: IC50): 6.4 nM | IC50 [7]: 5.8 nM | IC50 [21]: 9.1 nM | inhibition [22]: Active | IC50 [14]: 25 nM | inhibition [23]: Active

C[C@H]1[C@H](OC(=O)CCC(=O)O)O[C@@H]2O[C@@]3(C)CC[C@H]4[C@H](C)CC[C@@H]1[C@@]24OO3 [ARTESUNATE]
Activity [1]: 70% | Activity [5]: 98% | Survival [6]: 6.5 days | Activity [8]: 92% | Activity [9]: 89% | mean survival time at 10 mg/kg [11]: 7.3 days | ED50 [12]: 6.2 mg/kg | ED99 [13]: 135 mg/kg | Survival [16]: 6.7 days | Survival [18]: 7.2 days

CC(=O)C1=C(O)[C@@H]2[C@H]3c4c[nH]c5cccc(c45)C[C@H]3C(C)(C)N2C1=O [CYCLOPIAZONIC ACID]
IC50 [2]: 4160 nM | IC50 ([3]; read-out: IC50): 3240 nM | IC50 [7]: 3460 nM | IC50 [21]: 3420 nM

Source: ChEMBL document CHEMBL1240532, “Spiroindolones, a potent compound class for the treatment of malaria” (Science, 2010)
